Experimental data reported in the supplement of paper PMC10307832.

compound: Cc1ccc2nc(NCCN)c3ncc(C)n3c2c1 + O=C(c1cc(Cc2n[nH]c(=O)c3ccccc23)ccc1F)N1CCN(C(=O)C2CC2)CC1 [Olaparib] (partner 8 µM); assay: relative viability (nuclei count vs DMSO), 5 days (fraction); higher = more cells survive; conditions: first compound 0.4 µM
Outline: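 Dosing by pin tool came one day after lung cancer cell lines were seeded in 1536-well plates, using either one drug or a fixed anchor-drug dose plus five library-drug doses (not always all listed) in √10 steps. After 5 days, nuclei were counted on 4× images. Relative viability is treated-well nuclei count divided by vehicle-well nuclei count, and values are medians of duplicate plates.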

First: NCI-H2228
Second: NCI-H2023
The relative viability of the first is higher: 0.614 for the first, 0.541 for the second.

NCI-H1648 gave a relative viability of 0.789.

same assay, conditions: first compound 1.265 µM

First: NCI-H522
Second: NCI-H2342
The relative viability of the first is higher: 0.648 for the first, 0.411 for the second.

Compared with NCI-H727, NCI-H1650 is higher in relative viability: 0.785 for the first, 0.821 for the second.

Compared with EBC-1, NCI-H1703 is lower in relative viability: 0.602 for the first, 0.47 for the second.

Going from NCI-H1993 to SW 1573, the relative viability falls from 0.624 to 0.42.

First: NCI-H838
Second: LCLC-103H
The relative viability of the first is higher: 0.759 for the first, 0.743 for the second.

First: NCI-H520
Second: NCI-H2126
The relative viability of the first is lower: 0.304 for the first, 0.932 for the second.

Compared with EMC-BAC-2, NCI-H2085 is higher in relative viability: 0.456 for the first, 0.803 for the second.

Going from Calu-6 to HCC-366, the relative viability falls from 0.578 to 0.352.

First: NCI-H1666
Second: NCI-H596
The relative viability of the first is higher: 0.76 for the first, 0.637 for the second.

First: LK-2
Second: NCI-H2087
The relative viability of the first is higher: 0.757 for the first, 0.691 for the second.

First: NCI-H358
Second: NCI-H2170
The relative viability of the first is higher: 0.607 for the first, 0.549 for the second.

First: H3255
Second: COR-L23
The relative viability of the first is higher: 0.59 for the first, 0.321 for the second.

Compared with COR-L 105, IA-LM is higher in relative viability: 0.533 for the first, 0.795 for the second.

First: LOU-NH91
Second: ChaGo-K-1
The relative viability of the first is higher: 0.868 for the first, 0.426 for the second.

Going from A549 to SK-MES-1, the relative viability rises from 0.317 to 0.669.

Compared with SW 900, NCI-H2009 is lower in relative viability: 0.874 for the first, 0.71 for the second.

Compared with NCI-H661, SK-LU-1 is lower in relative viability: 0.661 for the first, 0.455 for the second.

Compared with NCI-H1299, CAL-12T is lower in relative viability: 0.891 for the first, 0.804 for the second.

Going from NCI-H2228 to NCI-H2023, the relative viability falls from 0.65 to 0.458.

Work on NCI-H1648 yielded a relative viability of 0.843.

same assay, conditions: first compound 4 µM

Compared with NCI-H522, NCI-H2342 is lower in relative viability: 0.635 for the first, 0.503 for the second.

Compared with NCI-H727, NCI-H1650 is lower in relative viability: 0.709 for the first, 0.549 for the second.

Going from EBC-1 to NCI-H1703, the relative viability falls from 0.546 to 0.437.

Going from NCI-H1993 to SW 1573, the relative viability falls from 1.06 to 0.177.

Compared with NCI-H838, LCLC-103H is higher in relative viability: 0.696 for the first, 0.739 for the second.

First: NCI-H520
Second: NCI-H2126
The relative viability of the first is lower: 0.266 for the first, 0.888 for the second.

Compared with EMC-BAC-2, NCI-H2085 is higher in relative viability: 0.488 for the first, 0.791 for the second.

Going from Calu-6 to HCC-366, the relative viability falls from 0.367 to 0.366.

First: NCI-H1666
Second: NCI-H596
The relative viability of the first is higher: 0.749 for the first, 0.715 for the second.

First: LK-2
Second: NCI-H2087
The relative viability of the first is higher: 0.672 for the first, 0.589 for the second.

Compared with NCI-H358, NCI-H2170 is higher in relative viability: 0.517 for the first, 0.637 for the second.

Compared with H3255, COR-L23 is lower in relative viability: 0.47 for the first, 0.328 for the second.

Going from COR-L 105 to IA-LM, the relative viability rises from 0.642 to 0.721.

Going from LOU-NH91 to ChaGo-K-1, the relative viability falls from 0.865 to 0.402.

First: A549
Second: SK-MES-1
The relative viability of the first is lower: 0.301 for the first, 0.468 for the second.

Going from SW 900 to NCI-H2009, the relative viability falls from 0.827 to 0.549.

Going from NCI-H661 to SK-LU-1, the relative viability falls from 0.631 to 0.484.

Compared with NCI-H1299, CAL-12T is lower in relative viability: 0.767 for the first, 0.625 for the second.

First: NCI-H2228
Second: NCI-H2023
The relative viability of the first is higher: 0.633 for the first, 0.254 for the second.

NCI-H1648 gave a relative viability of 0.666.
